Test results published in patent publication US6534075B1, “Antimicrobial and antiviral compositions and treatments for food surfaces” (Ecolab Inc., priority 1999, dated 2003).
Where two headings read alike, the source gives them in different places. Marks after values point to notes of the source that are not given here.

Columns and labels:
Feline parvovirus = details: published results against Feline parvovirus, cited from earlier work
E. coli = assay: Log reduction of E. coli by liquid compositions, 30 second contact (Tables 4, 5); type: cell-based; details: for Log Reduction: E. coli; for E. Coli Log Reduction: single component alone, pH 3, 30 second contact time, vs untreated control
Excerpt: Results recorded include the pH of the solution, the color of the solution and the log reduction in microbe. In Table 4, E. coli is used in all examples, while a variety of organisms (gram positive and gram negative bacteria, a yeast, a mold) are used in Table 5. [table] [table]

S. aureus [1] = assay: Log reduction of S. aureus by liquid compositions, 30 second contact (Table 5); type: cell-based; details: N-source:H2O2:KI 0:300:0 ppm, pH 5, 30 second contact
Excerpt: (§1) Results recorded include the pH of the solution, the color of the solution and the log reduction in microbe. In Table 4, E. coli is used in all examples, while a variety of organisms (gram positive and gram negative bacteria, a yeast, a mold) are used in Table 5.

Z. bailii = assay: Log reduction of Z. bailii by liquid compositions, 30 second contact (Table 5); type: cell-based
P. expansum = assay: Log reduction of P. expansum by liquid compositions, 15 minute contact (Table 5); type: cell-based
Excerpt: as §1

S. javiana = assay: Microbial reduction on Roma tomato surfaces, five minute submersion (Table 6); details: tomatoes submerged five minutes at 72° F., versus untreated control
Method: Specifically, comparison is made to the use of either sodium hypochlorite (bleach), hydrogen peroxide or peracetic acid.
Testing was performed on commercial Roma tomato surfaces using the test organism Salmonella javinia. For the pathogenic organisms, a 1:10 dilution of a 10^7 CFU/ml (colony forming units per ml) test system suspension was prepared. Whole tomatoes were placed into a plastic bag, and each bag was inoculated with a 10-mil. test system suspension, resulting in an inoculum level of […]. Bags are gently shaken for even distribution of the test system for five minutes. The produce types are then stored overnight at 4° C. Untreated controls were also prepared. Two-liter volumes of the test solutions were prepared in 4-liter beakers. Solutions were prepared in laboratory tap water to simulate industry conditions. The tomatoes were then exposed to the test solution by submersion for five minutes at 72° F. (about 22° C.). At the end of that time, the tomatoes were removed from the solution and thoroughly rinsed under fresh-running tap water. Fifty grams of the home produce (tomato), plus 100 ml buffered dilution water were placed into a stomacher bag. The tomatoes were massaged for 60 seconds. […] on TGE (Salmonella). Plates were incubated at 35° C. for 48 hours.

S. aureus [2] = assay: Food-preparation hard surface sanitizing comparison, S. aureus (Table 12); type: cell-based; details: actives conc. 300 ppm
Excerpt: (§2) Table 12 compares formulas of the present invention with prior art examples of food-preparation hard surface sanitizing. […] [table]

E. coli ATCC 11229 = assay: Food-preparation hard surface sanitizing comparison, E. coli (Table 12); type: cell-based; details: actives conc. 300 ppm; 30 second exposure
Excerpt: as §2

Total bacterial flora = assay: Meat carcass treatment, prerigor beef surfaces (Table 7); details: active antimicrobial 1000 ppm; carcass treated 30 seconds, drained 10 minutes
Method: Working Example 5 is similar to the previous example in that comparisons are made between the present invention and known commercial compositions for control of microorganisms on food surfaces. In this case, however, comparisons were made for meat carcass treatments.
Testing was performed on prerigor beef surfaces from a packing house. Total bacterial flora were tested. The carcasses were treated for 30 seconds and drained for 10 minutes. Test samples were isolated and plated for total […].

[3] = N-source:H2O2:KI 300:0:0 ppm, pH 7, 30 second contact

CCO [Ethanol]
Minimum Concentration (for 10-minute inactivation) (Feline parvovirus): 500,000 ppm

OO [Formula H2O2, hydrogen peroxide]
Log Reduction (E. coli; N-source:H2O2:KI 0:300:0 ppm, pH 5, 30 second contact): 0.2 log
E. Coli Log Reduction (E. coli): 0.2 log
Log Reduction (S. aureus [1]): 0.4 log
Log Reduction (Z. bailii; N-source:H2O2:KI 0:532:0 ppm, pH 3, 30 second contact): 0.1 log
Log Reduction (Z. bailii; N-source:H2O2:KI 0:532:0 ppm, pH 5, 30 second contact): 0.1 log
Log Reduction (Z. bailii; N-source:H2O2:KI 0:532:0 ppm, pH 7, 30 second contact): 0.1 log
Log Reduction (P. expansum; N-source:H2O2:KI 0:532:0 ppm, pH 5, 15 minute contact): 0.0* log
Log Reduction (S. javiana; active antimicrobial 80 ppm): <0.1 log
Log Reduction S. aureus (S. aureus [2]): 0.4 log
Log Reduction E. coli (E. coli ATCC 11229): 0.2 log

O=CCCCC=O [Glutaraldehyde]
Outcome noted in parentheses at the listed concentration (Feline parvovirus; 10-minute inactivation): 2-log
Minimum Concentration (for 10-minute inactivation) (Feline parvovirus; unit not given): 10,000

CC(C)O [IPA]
Minimum Concentration (for 10-minute inactivation) (Feline parvovirus): 500,000 ppm

[I-].[K+] [KI, potassium iodide]
E. Coli Log Reduction (E. coli): 0 log
Log Reduction (P. expansum; N-source:H2O2:KI 0:0:500 ppm, pH 5, 15 minute contact): 0.0* log

CCCCCCCCCCCCCCCC[n+]1ccccc1 [cetyl pyridinium chloride]
Log Reduction (Total bacterial flora): 0.5 log

C[N+](C)(C)CCO.[Cl-] [choline chloride]
Log Reduction (E. coli; [3]): 0.0 log
E. Coli Log Reduction (E. coli): 0 log
Log Reduction (Z. bailii; [3]): 0.0 log

CCCCCCCCCC[N+](C)(C)CCCCCCCCCC.[Cl-] [didecyl dimethyl ammonium chloride]
Log Reduction (Z. bailii; N-source:H2O2:KI 20:0:0 ppm, pH 3, 30 second contact): 0.1 log
Log Reduction (P. expansum; N-source:H2O2:KI 100:0:0 ppm, pH 7, 15 minute contact): 1.0* log

Oc1ccccc1-c1ccccc1 [o-phenylphenol G]
Minimum Concentration (for 10-minute inactivation) (Feline parvovirus): 100,000 ppm

CC(=O)OO [peracetic acid]
Log Reduction (S. javiana; active antimicrobial 80 ppm): 2.8 log

OCl [sodium hypochlorite]
Log Reduction (S. javiana; active antimicrobial 30 ppm): 0.3 log
Log Reduction (S. javiana; active antimicrobial 80 ppm): 1.9 log
Minimum Concentration (for 10-minute inactivation) (Feline parvovirus): 2,000 ppm

lecithin
E. Coli Log Reduction (E. coli): 0 log
